# Results from US10829458B2 (Araxes Pharma LLC, priority 2015, dated 2020).
# Target: T1, KRAS G12C 1-169, his-tagged protein, GDP-loaded (Homo sapiens, UniProt P01116, G12C)
# T1 construct: KRAS G12C 1-169, his-tagged protein, GDP-loaded
# Assay: Biochemical assay: covalent modification of KRAS G12C measured by mass spectrometry (RapidFire/TOF or Q-Exactive)
# Conditions: covalent binding to KRAS G12C
# Outline: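 GDP-loaded his-tagged KRAS G12C 1-169 at 2 μM in 20 mM Hepes, 150 mM NaCl, 1 mM MgCl2 incubated at room temperature with compound (10, 30 or 100 μM final, 2% DMSO) for 30 min, 2 h or 24 h, then quenched with formic acid. Intact-protein LC-MS (RapidFire/TOF or Q-Exactive) with deconvolution quantified modified versus unmodified protein.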
SMILES,Binding % (compounds of structure (I)),Binding % (compounds of structure (III))
"C=CC(=O)N1CCN(c2nc(NC3CCCN(CC4CC4)C3)nc3c(F)c(-c4c(O)cccc4F)c(Cl)cc23)CC1 (stereo not drawn) [Example I-134, 1-(4-(6-chloro-2-(1-(cyclopropyl-methyl)piperidin-3-ylamino)-8-fluoro-7-(2-fluoro-6-hydroxyphenyl)quinazolin-4-yl)piperazin-1-yl) prop-2-en-1-one]",+++ (+++ indicates binding activity greater than 90%),
"C=CC(=O)N1CCN(c2nc(NC3CC4CCC(C3)N4C3CC3)nc3c(F)c(-c4c(C)ccc5[nH]ncc45)c(Cl)cc23)CC1 (stereo not drawn) [Example I-188, 1-(4-(6-chloro-2-((8-cyclopropyl-8-azabicyclo[3.2.1]octan-3-yl)amino)-8-fluoro-7-(5-methyl-1H-indazol-4-yl)quinazolin-4-yl)piperazin-1-yl) prop-2-en-1-one]",++ (++ indicates binding activity from 50 to 90%),
"C=CC(=O)N1CCN(c2nc(OC3CCN(C(C)=O)CC3)nc3c(F)c(-c4c(O)cccc4F)c(Cl)cc23)CC1 [Example I-115, 1-(4-(2-(1-acetylpiperidin-4-yloxy)-6-chloro-8-fluoro-7-(2-fluoro-6-hydroxyphenyl)quinazolin-4-yl)piperazin-1-yl) prop-2-en-1-one]",+++ (+++ indicates binding activity greater than 90%),
"C=CC(=O)N1CCN(c2nc(OCC(=O)N(C)C)nc3c(F)c(-c4c(O)cccc4F)c(Cl)cc23)CC1 [Example I-8, 2-(4-(4-acryloyl-piperazin-1-yl)-6-chloro-8-fluoro-7-(2-fluoro-6-hydroxyphenyl)quinazolin-2-yloxy)-N,N-dimethyl-acetamide]",+++ (+++ indicates binding activity greater than 90%),
"C=CC(=O)N1CCN(c2ncnc3c(F)c(-c4c(O)cccc4F)c(Cl)cc23)[C@H](C)C1 [III-12, 1-((3R)-4-(6-chloro-8-fluoro-7-(2-fluoro-6-hydroxy-phenyl)quinazolin-4-yl)-3-methyl-piperazin-1-yl)prop-2-en-1-one]",,+ (+ indicates binding activity up to 50%)
"C=CC(=O)N1CCN(c2nc(N3CC(N(CC)CC)C3)nc3c(F)c(-c4c(O)cccc4F)c(Cl)cc23)CC1 [Example I-131, 1-(4-(6-chloro-2-(3-(diethyl-amino)azetidin-1-yl)-8-fluoro-7-(2-fluoro-6-hydroxyphenyl)quinazolin-4-yl)piperazin-1-yl) prop-2-en-1-one]",+++ (+++ indicates binding activity greater than 90%),
"C=CC(=O)N1CCN(c2nc(OCCN3CCCC3=O)nc3c(F)c(-c4c(O)cccc4F)c(Cl)cc23)CC1 [Example I-16, 1-(2-(4-(4-acryloyl-piperazin-1-yl)-6-chloro-8-fluoro-7-(2-fluoro-6-hydroxyphenyl)quinazolin-2-yloxy)ethyl) pyrrolidin-2-one]",+++ (+++ indicates binding activity greater than 90%),
"C=CC(=O)N1CCN(c2nc(OCCN3CC[C@H](OC)C3)nc3c(F)c(-c4c(O)cccc4F)c(Cl)cc23)CC1 [Example I-33, 1-(4-(6-chloro-8-fluoro-7-(2-fluoro-6-hydroxyphenyl)-2-(2-((S)-3-methoxy-pyrrolidin-1-yl)ethoxy)quinazolin-4-yl)piperazin-1-yl)prop-2-en-1-one]",+++ (+++ indicates binding activity greater than 90%),
"C=CC(=O)N1CCN(c2nc(N3CC(N(C)C)C3)nc3c(F)c(-c4c(O)cccc4F)c(Cl)cc23)CC1 (atropisomer, axis not shown) [Example I-116, (S)-1-(4-(6-chloro-2-(3-(dimethylamino)azetidin-1-yl)-8-fluoro-7-(2-fluoro-6-hydroxyphenyl)quinazolin-4-yl)piperazin-1-yl) prop-2-en-1-one]",+++ (+++ indicates binding activity greater than 90%),
"C=CC(=O)N1CCN(c2nc(NC3CCN(C)CC3)nc3c(F)c(-c4c(O)cccc4F)c(Cl)cc23)CC1 [Example I-3, 1-(4-(6-chloro-8-fluoro-7-(2-fluoro-6-hydroxyphenyl)-2-(1-methylpiperidin-4-ylamino)quinazolin-4-yl)piperazin-1-yl) prop-2-en-1-one]",+++ (+++ indicates binding activity greater than 90%),
"C=CC(=O)N1CCN(c2nc(CCNc3ncccn3)nc3c(F)c(-c4c(O)cccc4F)c(Cl)cc23)CC1 [Example I-135, 1-(4-(6-chloro-8-fluoro-7-(2-fluoro-6-hydroxyphenyl)-2-(2-(pyrimidin-2-ylamino)ethyl)quinazolin-4-yl)piperazin-1-yl) prop-2-en-1-one]",+++ (+++ indicates binding activity greater than 90%),
"C=CC(=O)N1CCN(c2nc(NC3CCN(C(C)=O)CC3)nc3c(F)c(-c4c(O)cccc4F)c(Cl)cc23)CC1 [Example I-70, 1-(4-(2-(1-acetyl-piperidin-4-ylamino)-6-chloro-8-fluoro-7-(2-fluoro-6-hydroxyphenyl)quinazolin-4-yl)piperazin-1-yl) prop-2-en-1-one]",+++ (+++ indicates binding activity greater than 90%),
"C=CC(=O)N1CCN(c2nc(OCc3ccc(C)nc3)nc3c(F)c(-c4c(O)cccc4F)c(Cl)cc23)CC1 [Example I-104, 1-(4-(6-chloro-8-fluoro-7-(2-fluoro-6-hydroxyphenyl)-2-((6-methyl-pyridin-3-yl)methoxy)quinazolin-4-yl)piperazin-1-yl) prop-2-en-1-one]",+ (+ indicates binding activity up to 50%),
"C=CC(=O)N1CCN(c2nc(OCCN3CC(F)(F)C3)nc3c(F)c(-c4c(O)cccc4F)c(Cl)cc23)CC1 (atropisomer, axis not shown) [Example I-125, (S)-1-(4-(6-chloro-2-(2-(3,3-difluoro-azetidin-1-yl)ethoxy)-8-fluoro-7-(2-fluoro-6-hydroxyphenyl)quinazolin-4-yl)piperazin-1-yl) prop-2-en-1-one]",+++ (+++ indicates binding activity greater than 90%),
"C=CC(=O)N1CCN(c2nc(OCCN(CC)CC)nc3c(F)c(-c4c(O)cccc4F)c(Cl)cc23)CC1 (atropisomer, axis not shown) [Example I-87, (S)-1-(4-(6-chloro-2-(2-(diethylamino)ethoxy)-8-fluoro-7-(2-fluoro-6-hydroxyphenyl)quinazolin-4-yl)piperazin-1-yl) prop-2-en-1-one]",+++ (+++ indicates binding activity greater than 90%),
"C=CC(=O)N1CCN(c2nc(OCCN3CCS(=O)(=O)CC3)nc3c(F)c(-c4c(O)cccc4F)c(Cl)cc23)CC1 [Example I-67, 1-(4-(6-chloro-8-fluoro-7-(2-fluoro-6-hydroxyphenyl)-2-(2-dioxothio-morpholino-ethoxy)quinazolin-4-yl)piperazin-1-yl)prop-2-en-1-one]",+++ (+++ indicates binding activity greater than 90%),
"C=CC(=O)N1CCN(c2nc(OCCN3CCOCC3)nc3c(F)c(-c4ccccc4C(F)(F)F)c(Cl)cc23)CC1 [Example I-48, 1-(4-(6-chloro-8-fluoro-2-(2-morpholino-ethoxy)-7-(2-(trifluoromethyl)phenyl)quinazolin-4-yl)piperazin-1-yl)prop-2-en-1-one]",+++ (+++ indicates binding activity greater than 90%),
"C=CC(=O)N1CCN(c2nc(NC3CCCN(CC(F)(F)F)C3)nc3c(F)c(-c4c(O)cccc4F)c(Cl)cc23)CC1 (stereo not drawn) [Example I-133, 1-(4-(6-chloro-8-fluoro-7-(2-fluoro-6-hydroxyphenyl)-2-(1-(2,2,2-trifluoroethyl)piperidin-3-ylamino)quinazolin-4-yl)piperazin-1-yl) prop-2-en-1-one]",++ (++ indicates binding activity from 50 to 90%),
"C=CC(=O)N1CCN(c2nc(N3CC(N4CCOCC4)C3)nc3c(F)c(-c4c(O)cccc4F)c(Cl)cc23)CC1 [Example I-24, 1-(4-(6-chloro-8-fluoro-7-(2-fluoro-6-hydroxyphenyl)-2-(3-morpholino-azetidin-1-yl)quinazolin-4-yl)piperazin-1-yl)prop-2-en-1-one]",+++ (+++ indicates binding activity greater than 90%),
"C=CC(=O)N1CCN(c2nc(OC3CCN(C(C)C)CC3)nc3c(F)c(-c4c(C)ccc5[nH]ncc45)c(Cl)cc23)CC1 [Example I-193, 1-(4-(6-chloro-8-fluoro-2-((1-isopropyl-piperidin-4-yl)oxy)-7-(5-methyl-1H-indazol-4-yl)quinazolin-4-yl)piperazin-1-yl) prop-2-en-1-one]",+++ (+++ indicates binding activity greater than 90%),
"C=CC(=O)N1CCN(c2ncnc3c(F)c(-c4cc(O)cc5ccccc45)c(Cl)cc23)[C@@H](C)C1 [III-30, 1-((3S)-4-(6-chloro-8-fluoro-7-(3-hydroxy-naphthalen-1-yl)quinazolin-4-yl)-3-methyl-piperazin-1-yl)prop-2-en-1-one]",,+++ (+++ indicates binding activity greater than 90%)
"C=CC(=O)N1CCN(c2nc(OCCN3CCC(F)(F)C3)nc3c(F)c(-c4c(O)cccc4F)c(Cl)cc23)CC1 (atropisomer, axis not shown) [Example I-97, (S)-1-(4-(6-chloro-2-(2-(3,3-difluoro-pyrrolidin-1-yl)ethoxy)-8-fluoro-7-(2-fluoro-6-hydroxyphenyl)quinazolin-4-yl)piperazin-1-yl)prop-2-en-1-one]",+++ (+++ indicates binding activity greater than 90%),
C=CC(=O)N1[C@H](C)CN(c2c(C#N)cnc3c(F)c(-c4c(O)cccc4F)c(Cl)cc23)C[C@@H]1C [III-43],,++ (++ indicates activity from 50% to 90%)
"C=CC(=O)N1CCN(c2nc(C(F)(F)F)nc3c(F)c(-c4c(O)cccc4F)c(Cl)cc23)CC1 [Example I-204, 1-(4-(6-chloro-8-fluoro-7-(2-fluoro-6-hydroxyphenyl)-2-(trifluoro-methyl)quinazolin-4-yl)piperazin-1-yl) prop-2-en-1-one]",++ (++ indicates binding activity from 50 to 90%),
